Measured values as given in US20260345624A1, “TREATMENT OF PROSTATE CANCER BY PROMOTING PDE4D7” (KONINKLIJKE PHILIPS N.V., priority 2022, published 2026).
Entries after “also recorded” stand apart in the source; their conditions may differ.

Key:
LNCaP WT cells = test: xCELLigence real-time proliferation of WT LNCaP cells; format: cell-based; conditions: for WT LNCaP growth, strongest effect: enzalutamide 1 μM and above; for WT LNCaP cell proliferation: enzalutamide 0.1-30 μM, all concentrations tested
Description: (§1) xCELLigence Real-Time Cell Analysis (RTCA)
(§2) Real-time cell growth was analysed using the xCELLigence RTCA system (Agilent), which measures real-time cell adhesion across gold microelectrode biosensors on 96 well electronic plates (E-plates) within a 37 °C incubator with 5% CO2. Cellular adhesion influences electrical impedance which is converted into the cell index (CI) via RTCA software. Initial background measurements were recorded with 100 μL RPMI 1640 medium, followed by addition of 100 μL LNCaP cell suspension (10,000 cells/wells) for measurement of CI over time. Approximately 24 h after seeding, cells were treated with specified concentrations of drugs. Negative controls containing either 0.1% DMSO or untreated cells were also included. CI was transformed to normalised CI via the RTCA software to timepoint of treatment.

P1-TET4D7 LNCaP cells = test: Real-time growth of P1 LNCaP cells with Tet-On inducible PDE4D7; format: cell-based; conditions: enzalutamide 10 μM, Tet-On doxycycline-induced PDE4D7
Description: as §1, §2
PDE4D7 (GenBank ID AF536976) sequence was first subcloned into lentivirus vectors with CMV (LVR-1001-pLV-CMV-PGK-Puro) and then into Tet-On inducible vector pLV-tet-on-3G-P2A-Puro, LNCaP-shRNA P1 cells were maintained in RPMI1640 medium supplemented with 10% (v/v) foetal bovine serum, 1% (v/v) L-Glutamine and 1% (v/v) penicillin/streptomycin, and infected with Tet-On inducible lentivirus at MOI=5-10 in the presence of 8 μg/ml polybrene. […]

[1] = test system: PDE4D7-knockdown LNCaP P1 cells; test: xCELLigence real-time proliferation of PDE4D7-knockdown P1 LNCaP cells; format: cell-based
Source text: Stable shRNA-mediated lentiviral transduced LNCaP cell lines were generated by AMSBIO (Table 1). Briefly, shRNA-PDE4D7 was cloned into a lentivector and delivered into LNCaP clone FGC cells (ATCC) via lentivirus (MOI=10). Cells were maintained in puromycin-supplemented medium prior to selection of stably transduced cells. A stable shRNA-PDE4D7 LNCaP cell line was then re-transduced with lentivirus delivering PDE4D7 to generate a re-introduced cell line. Scrambled-shRNA was used as a control. All cells were cultured in RPMI 1640 medium (Gibco D), supplemented with 10% (v/v) foetal bovine serum, 1% (v/v) L-Glutamine and 1% (v/v) penicillin/streptomycin, and stored within a 37 °C incubator with 5% CO2.
as §1, §2

PCa = conditions: He et al., 2019; cited from earlier work
cAMP production = conditions: Miller et al., 2013; cited from earlier work

SMILES | WT LNCaP growth, strongest effect (LNCaP WT cells) | WT LNCaP growth, strongest effect (LNCaP WT cells; listed as Enzalutamide) | WT LNCaP cell proliferation (LNCaP WT cells) | WT LNCaP cell proliferation (LNCaP WT cells; listed as Enzalutamide) | sensitivity to enzalutamide upon PDE4D7 re-expression (P1-TET4D7 LNCaP cells) | P1 LNCaP growth vs DMSO control ([1]; enzalutamide, higher concentrations up to 30 μM) | P1 LNCaP proliferation ([1]; enzalutamide, increasing doses 0-30 μM) | resistance to enzalutamide upon PDE4D7 knockdown ([1]; overall conclusion, 0-30 μM) | overall survival/time to recurrence in PCa (PCa) | treatment/reduction of PCa tumours (PCa) | growth of WT cells (LNCaP WT cells; metformin, all concentrations (0-25 μM)) | growth inhibition independent of PDE4D7 expression, WT (LNCaP WT cells; summary statement, WT vs P1) | cAMP production (cAMP production) | growth inhibition of P1 cells ([1]; metformin, only at highest concentrations tested (0-25 μM)) | growth inhibition independent of PDE4D7 expression, P1 ([1]; summary statement, WT vs P1)
CNC(=O)c1ccc(N2C(=S)N(c3ccc(C#N)c(C(F)(F)F)c3)C(=O)C2(C)C)cc1F [enzalutamide] | least growth | most profound effects | significant decrease in WT LNCaP cell proliferation | significant decrease in WT LNCaP cell proliferation at all concentrations tested | restored sensitivity to enzalutamide; also recorded: rescued upon PDE4D7 re-expression | significantly enhanced growth; also recorded: increased growth at higher concentrations | minimal reductions in cell proliferation | confers resistance to anti-androgens such as enzalutamide | – | – | – | – | – | – | –
CN(C)C(=N)N=C(N)N [metformin, Metformin] | – | – | – | – | – | – | – | – | enhance overall survival/time to recurrence | no evidence of it treating/reducing the PCa tumours itself | significantly reducing growth of WT cells at all concentrations | reduce tumor growth independent of PDE4D7 expression levels; also recorded: inhibit LNCaP cell growth irrespective of PDE4D7 expression status | decrease CAMP production | significant inhibition was only observed in P1 cells at highest concentrations tested | reduce tumor growth independent of PDE4D7 expression levels; also recorded: inhibit LNCaP cell growth irrespective of PDE4D7 expression status
